Test system: microorganisms with acquired resistance
Assay: microbe, parasite or virus in culture
Assay type: cell-based
Conditions: for Peptide MIC: in µg/mL

## KWKSFIKKLTSAAKKVVTTAKPLISS [MBI 26]
E. cloacae ECL015, Ceftriaxone section
  Peptide MIC Alone: 32 µg/mL
H. influenzae 1
  Peptide MIC + Piperacillin: 32 µg/mL
  Piperacillin MIC + Peptide: 4 µg/mL
H. influenzae 1, Piperacillin section
  Peptide MIC Alone: >128 µg/mL
H. influenzae 2
  Peptide MIC + Piperacillin: 16 µg/mL
  Piperacillin MIC + Peptide: 16 µg/mL
H. influenzae 2, Piperacillin section
  Peptide MIC Alone: >128 µg/mL
P. aeruginosa 7
  Peptide MIC + Piperacillin: 32 µg/mL
  Piperacillin MIC + Peptide: 32 µg/mL
P. aeruginosa 7, Piperacillin section
  Peptide MIC Alone: >128 µg/mL
P. aeruginosa 23
  Peptide MIC + Piperacillin: 32 µg/mL
  Piperacillin MIC + Peptide: 4 µg/mL
P. aeruginosa 23, Piperacillin section
  Peptide MIC Alone: >64 µg/mL
P. aeruginosa 26
  Peptide MIC + Piperacillin: 32 µg/mL
  Piperacillin MIC + Peptide: 8 µg/mL
P. aeruginosa 26, Piperacillin section
  Peptide MIC Alone: >32 µg/mL
P. aeruginosa 30
  Ciprofloxacin MIC + Peptide: 0.25 µg/mL
  Peptide MIC + Ciprofloxacin: 2 µg/mL
P. aeruginosa 30, Ciprofloxacin section
  Peptide MIC Alone: >32 µg/mL
P. aeruginosa 31
  Ciprofloxacin MIC + Peptide: 0.25 µg/mL
  Peptide MIC + Ciprofloxacin: 16 µg/mL
P. aeruginosa 31, Ciprofloxacin section
  Peptide MIC Alone: >32 µg/mL
P. aeruginosa PA023
  Gentamicin MIC + Peptide: 4 µg/mL
  Peptide MIC + Gentamicin: 64 µg/mL
P. aeruginosa PA023, Gentamicin section
  Peptide MIC Alone: >128 µg/mL
P. aeruginosa PA031
  Peptide MIC + Tobramycin: 16 µg/mL
  Tobramycin MIC + Peptide: 4 µg/mL
P. aeruginosa PA031, Tobramycin section
  Peptide MIC Alone: 32 µg/mL
P. aeruginosa PA041
  Gentamicin MIC + Peptide: 4 µg/mL
  Peptide MIC + Gentamicin: 16 µg/mL
P. aeruginosa PA41
  Ciprofloxacin MIC + Peptide: 1 µg/mL
  Peptide MIC + Ciprofloxacin: 32 µg/mL
P. aeruginosa PA41, Ciprofloxacin section
  Peptide MIC Alone: 128 µg/mL
P. aeruginosa PA041, Gentamicin section
  Peptide MIC Alone: 64 µg/mL
P. aeruginosa PA77
  Ciprofloxacin MIC + Peptide: 0.125 µg/mL
  Peptide MIC + Ciprofloxacin: 64 µg/mL
P. aeruginosa PA77, Ciprofloxacin section
  Peptide MIC Alone: 128 µg/mL
S. aureus, combination with Ampicillin
  Peptide MIC: 0.25
S. aureus, combination with Mupirocin
  Peptide MIC: 4
S. epidermidis SE068
  Peptide MIC + Tobramycin: 0.5 µg/mL
  Tobramycin MIC + Peptide: 4 µg/mL
S. epidermidis SE068, Tobramycin section
  Peptide MIC Alone: 2 µg/mL
S. epidermidis SE071
  Peptide MIC + Tobramycin: 8 µg/mL
  Tobramycin MIC + Peptide: 0.125 µg/mL
S. epidermidis SE071, Tobramycin section
  Peptide MIC Alone: 16 µg/mL
S. epidermidis, combination with Clindamycin
  Peptide MIC: 2
S. haemolyticus, combination with Clindamycin
  Peptide MIC: 1
S. haemolyticus, combination with Methicillin
  Peptide MIC: 2
S. maltophilia 2
  Peptide MIC + Piperacillin: 2 µg/mL
  Piperacillin MIC + Peptide: 16 µg/mL
S. maltophilia 2, Piperacillin section
  Peptide MIC Alone: 4 µg/mL
S. maltophilia 4
  Peptide MIC + Piperacillin: 8 µg/mL
  Piperacillin MIC + Peptide: 16 µg/mL
S. maltophilia 4, Piperacillin section
  Peptide MIC Alone: 16 µg/mL
S. maltophilia 34
  Ciprofloxacin MIC + Peptide: 0.25 µg/mL
  Peptide MIC + Ciprofloxacin: 8 µg/mL
S. maltophilia 34, Ciprofloxacin section
  Peptide MIC Alone: >32 µg/mL
S. maltophilia 35
  Ciprofloxacin MIC + Peptide: 0.5 µg/mL
  Peptide MIC + Ciprofloxacin: 16 µg/mL
  Peptide MIC + Piperacillin: 16 µg/mL
  Piperacillin MIC + Peptide: 4 µg/mL
S. maltophilia 35, Ciprofloxacin section
  Peptide MIC Alone: >32 µg/mL
S. maltophilia 35, Piperacillin section
  Peptide MIC Alone: >32 µg/mL
S. maltophilia 41
  Peptide MIC + Piperacillin: 32 µg/mL
  Piperacillin MIC + Peptide: 16 µg/mL
S. maltophilia 41, Piperacillin section
  Peptide MIC Alone: >32 µg/mL
S. maltophilia SMA017
  Gentamicin MIC + Peptide: 1 µg/mL
  Peptide MIC + Gentamicin: 8 µg/mL
S. maltophilia SMA017, Gentamicin section
  Peptide MIC Alone: 16 µg/mL
S. maltophilia SMA019
  Gentamicin MIC + Peptide: 2 µg/mL
  Peptide MIC + Gentamicin: 2 µg/mL
S. maltophilia SMA019, Gentamicin section
  Peptide MIC Alone: 4 µg/mL
S. maltophilia SMA027
  Peptide MIC + Tobramycin: 64 µg/mL
  Tobramycin MIC + Peptide: 4 µg/mL
S. maltophilia SMA027, Tobramycin section
  Peptide MIC Alone: >128 µg/mL
S. maltophilia, combination with Piperacillin
  Peptide MIC: 32
S. marcescens 1
  Peptide MIC + Piperacillin: 16 µg/mL
  Piperacillin MIC + Peptide: 2 µg/mL
S. marcescens 1, Piperacillin section
  Peptide MIC Alone: >128 µg/mL
Peptide + Ceftriaxone, A. baumannii ABI005
  FIC: 0.53
Peptide + Ceftriaxone, A. baumannii ABI006
  FIC: 0.56
Peptide + Ceftriaxone, B. cepacia BC003
  FIC: 0.50
Peptide + Ceftriaxone, E. cloacae ECL015
  FIC: 0.19
Peptide + Ciprofloxacin, A. calcoaceticus 5
  FIC: 0.38
Peptide + Ciprofloxacin, E. cloacae 16
  FIC: 0.38
Peptide + Ciprofloxacin, E. cloacae 17
  FIC: 0.38
Peptide + Ciprofloxacin, P. aeruginosa 30
  FIC: 0.09
Peptide + Ciprofloxacin, P. aeruginosa 31
  FIC: 0.27
Peptide + Ciprofloxacin, P. aeruginosa PA41
  FIC: 0.50
Peptide + Ciprofloxacin, P. aeruginosa PA77
  FIC: 0.56
Peptide + Ciprofloxacin, S. maltophilia 34
  FIC: 0.25
Peptide + Ciprofloxacin, S. maltophilia 35
  FIC: 0.50
Peptide + Gentamicin, A. baumannii ABI001
  FIC: 0.56
Peptide + Gentamicin, A. baumannii ABI002
  FIC: 0.53
Peptide + Gentamicin, P. aeruginosa PA023
  FIC: 0.75
Peptide + Gentamicin, P. aeruginosa PA041
  FIC: 0.75
Peptide + Gentamicin, S. maltophilia SMA017
  FIC: 0.52
Peptide + Gentamicin, S. maltophilia SMA019
  FIC: 0.53
Peptide + Piperacillin, A. calcoaceticus 2
  FIC: 0.50
Peptide + Piperacillin, A. calcoaceticus 7
  FIC: 0.25
Peptide + Piperacillin, E. cloacae 13
  FIC: 0.16
Peptide + Piperacillin, E. cloacae 19
  FIC: 0.31
Peptide + Piperacillin, H. influenzae 1
  FIC: 0.19
Peptide + Piperacillin, H. influenzae 2
  FIC: 0.19
Peptide + Piperacillin, P. aeruginosa 7
  FIC: 0.25
Peptide + Piperacillin, P. aeruginosa 23
  FIC: 0.27
Peptide + Piperacillin, P. aeruginosa 26
  FIC: 0.56
Peptide + Piperacillin, S. maltophilia 2
  FIC: 0.75
Peptide + Piperacillin, S. maltophilia 4
  FIC: 0.63
Peptide + Piperacillin, S. maltophilia 35
  FIC: 0.26
Peptide + Piperacillin, S. maltophilia 41
  FIC: 0.52
Peptide + Piperacillin, S. marcescens 1
  FIC: 0.09
Peptide + Tobramycin, P. aeruginosa PA031
  FIC: 0.75
Peptide + Tobramycin, S. epidermidis SE068
  FIC: 0.27
Peptide + Tobramycin, S. epidermidis SE071
  FIC: 0.50
Peptide + Tobramycin, S. maltophilia SMA027
  FIC: 0.50

From patent publication US20020035061A1, “COMPOSITIONS AND METHODS FOR TREATING INFECTIONS USING CATIONIC PEPTIDES ALONE OR IN COMBINATION WITH ANTIBIOTICS” (priority 1996, published 2002)
